# Assay results taken from article PMC10211317, “Identification of ARUK2002821 as an isoform-selective PI5P4Kα inhibitor” (RSC Medicinal Chemistry, 2023).
# Columns and labels:
# Assay in all cases: Premier Screen kinase panel (MRC PPU)
# Assay type in all cases: biochemical
# ABL = ABL (Homo sapiens, UniProt P00519); details: ABL (Entrez ABL1), read-out: Residual activity (%)
# Description: (§1) room temperature with shaking for 30 minutes. The kinase concentration in the eluates was measured by qPCR.
# (§2) using ADP-GloTM assay at the MRC PPU International Centre for Kinase Profiling, University of Dundee.
# (§3) Conducted by MRC PPU International Centre
# (§4) Conducted by MRC PPU International Centre for […]
# CAMKKb = CAMKKb (Homo sapiens, UniProt Q96RR4); details: CAMKKb (Entrez CAMKK2), read-out: Residual activity (%)
# Description: as §1, §2, §3, §4
# CDK2-Cyclin A = CDK2-Cyclin A (Homo sapiens, UniProt P24941); details: CDK2-Cyclin A (Entrez CDK2 + CCNA2), read-out: Residual activity (%)
# Description: as §1, §2, §3, §4
# CDK9-Cyclin T1 = CDK9-Cyclin T1 (Homo sapiens, UniProt P50750); details: CDK9-Cyclin T1 (Entrez CDK9 + CCNT1), read-out: Residual activity (%)
# Description: as §1, §2, §3, §4
# CHK2 = CHK2 (Homo sapiens, UniProt O96017); details: CHK2 (Entrez CHEK2), read-out: Residual activity (%)
# Description: as §1, §2, §3, §4
# CK1δ = CK1δ (Homo sapiens, UniProt P48730); details: CK1δ (Entrez CSNK1G2), read-out: Residual activity (%)
# Description: as §1, §2, §3, §4
# CSK = CSK (Homo sapiens, UniProt P41240); details: CSK (Entrez CSK), read-out: Residual activity (%)
# Description: as §1, §2, §3, §4
# EPH-A2 = EPH-A2 (Homo sapiens, UniProt P29317); details: EPH-A2 (Entrez EPHA2), read-out: Residual activity (%)
# Description: as §1, §2, §3, §4
# EPH-B2 = EPH-B2 (Homo sapiens, UniProt P29323); details: EPH-B2 (Entrez EPHB2), read-out: Residual activity (%)
# Description: as §1, §2, §3, §4
# ERK1 = ERK1 (Homo sapiens, UniProt P27361); details: ERK1 (Entrez MAPK3), read-out: Residual activity (%)
# Description: as §1, §2, §3, §4
# ERK2 = ERK2 (Homo sapiens, UniProt P28482); details: ERK2 (Entrez MAPK1), read-out: Residual activity (%)
# Description: as §1, §2, §3, §4
# IKKe = IKKe (Homo sapiens, UniProt Q14164); details: IKKe (Entrez IKBKE), read-out: Residual activity (%)
# Description: as §1, §2, §3, §4
# IRAK4 = IRAK4 (Homo sapiens, UniProt Q9NWZ3); details: IRAK4 (Entrez IRAK4), read-out: Residual activity (%)
# Description: as §1, §2, §3, §4
# JNK1 = JNK1 (Homo sapiens, UniProt P45983); details: JNK1 (Entrez MAPK8), read-out: Residual activity (%)
# Description: as §1, §2, §3, §4
# LKB1 = LKB1 (Homo sapiens, UniProt Q15831); details: LKB1 (Entrez STK11), read-out: Residual activity (%)
# Description: as §1, §2, §3, §4
# MEKK1 = MEKK1 (Homo sapiens, UniProt Q13233); details: MEKK1 (Entrez MAP3K1), read-out: Residual activity (%)
# Description: as §1, §2, §3, §4
# MELK = MELK (Homo sapiens, UniProt Q14680); details: MELK (Entrez MELK), read-out: Residual activity (%)
# Description: as §1, §2, §3, §4
# MKK1 = MKK1 (Homo sapiens, UniProt Q02750); details: MKK1 (Entrez MAP2K1), read-out: Residual activity (%)
# Description: as §1, §2, §3, §4
# MKK2 = MKK2 (Homo sapiens, UniProt P36507); details: MKK2 (Entrez MAP2K2), read-out: Residual activity (%)
# Description: as §1, §2, §3, §4
# MKK6 = MKK6 (Homo sapiens, UniProt P52564); details: MKK6 (Entrez MAP2K6), read-out: Residual activity (%)
# Description: as §1, §2, §3, §4
# MLK3 = MLK3 (Homo sapiens, UniProt Q16584); details: MLK3 (Entrez MAP3K11), read-out: Residual activity (%)
# Description: as §1, §2, §3, §4
# MNK2 = MNK2 (Homo sapiens, UniProt Q9HBH9); details: MNK2 (Entrez MKNK2), read-out: Residual activity (%)
# Description: as §1, §2, §3, §4
# NUAK1 = NUAK1 (Homo sapiens, UniProt O60285); details: NUAK1 (Entrez NUAK1), read-out: Residual activity (%)
# Description: as §1, §2, §3, §4
# OSR1 = OSR1 (Homo sapiens, UniProt O95747); details: OSR1 (Entrez OXSR1), read-out: Residual activity (%)
# Description: as §1, §2, §3, §4
# PAK2 = PAK2 (Homo sapiens, UniProt Q13177); details: PAK2 (Entrez PAK2), read-out: Residual activity (%)
# Description: as §1, §2, §3, §4
# PINK = PINK (Tribolium castaneum, UniProt D6WMX4); details: PINK (Entrez PINK1), read-out: Residual activity (%)
# Description: as §1, §2, §3, §4
# PKBb = PKBb (Homo sapiens, UniProt P31751); details: PKBb (Entrez AKT2), read-out: Residual activity (%)
# Description: as §1, §2, §3, §4
# PRAK = PRAK (Homo sapiens, UniProt Q8IW41); details: PRAK (Entrez MAPKAPK5), read-out: Residual activity (%)
# Description: as §1, §2, §3, §4
# RIPK2 = RIPK2 (Homo sapiens, UniProt O43353); details: RIPK2 (Entrez RIPK2), read-out: Residual activity (%)
# Description: as §1, §2, §3, §4
# ROCK 2 = ROCK 2 (Rattus norvegicus, UniProt Q62868); details: ROCK 2 (Entrez ROCK2), read-out: Residual activity (%)
# Description: as §1, §2, §3, §4
# ULK2 = ULK2 (Homo sapiens, UniProt Q8IYT8); details: ULK2 (Entrez ULK2), read-out: Residual activity (%)
# Description: as §1, §2, §3, §4
# MKK1, sequence (Q02750 whole entry): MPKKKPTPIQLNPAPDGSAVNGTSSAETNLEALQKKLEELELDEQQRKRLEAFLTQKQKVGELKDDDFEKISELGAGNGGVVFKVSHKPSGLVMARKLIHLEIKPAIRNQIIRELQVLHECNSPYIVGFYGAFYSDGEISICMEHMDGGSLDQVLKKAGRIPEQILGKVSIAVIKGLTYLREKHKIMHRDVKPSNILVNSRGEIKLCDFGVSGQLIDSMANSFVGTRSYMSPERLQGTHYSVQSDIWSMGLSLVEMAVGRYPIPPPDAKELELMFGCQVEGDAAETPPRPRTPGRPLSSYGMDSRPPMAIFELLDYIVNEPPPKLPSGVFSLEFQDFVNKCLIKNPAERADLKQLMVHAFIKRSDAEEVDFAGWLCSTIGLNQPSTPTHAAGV
# ULK2, sequence (Q8IYT8 whole entry): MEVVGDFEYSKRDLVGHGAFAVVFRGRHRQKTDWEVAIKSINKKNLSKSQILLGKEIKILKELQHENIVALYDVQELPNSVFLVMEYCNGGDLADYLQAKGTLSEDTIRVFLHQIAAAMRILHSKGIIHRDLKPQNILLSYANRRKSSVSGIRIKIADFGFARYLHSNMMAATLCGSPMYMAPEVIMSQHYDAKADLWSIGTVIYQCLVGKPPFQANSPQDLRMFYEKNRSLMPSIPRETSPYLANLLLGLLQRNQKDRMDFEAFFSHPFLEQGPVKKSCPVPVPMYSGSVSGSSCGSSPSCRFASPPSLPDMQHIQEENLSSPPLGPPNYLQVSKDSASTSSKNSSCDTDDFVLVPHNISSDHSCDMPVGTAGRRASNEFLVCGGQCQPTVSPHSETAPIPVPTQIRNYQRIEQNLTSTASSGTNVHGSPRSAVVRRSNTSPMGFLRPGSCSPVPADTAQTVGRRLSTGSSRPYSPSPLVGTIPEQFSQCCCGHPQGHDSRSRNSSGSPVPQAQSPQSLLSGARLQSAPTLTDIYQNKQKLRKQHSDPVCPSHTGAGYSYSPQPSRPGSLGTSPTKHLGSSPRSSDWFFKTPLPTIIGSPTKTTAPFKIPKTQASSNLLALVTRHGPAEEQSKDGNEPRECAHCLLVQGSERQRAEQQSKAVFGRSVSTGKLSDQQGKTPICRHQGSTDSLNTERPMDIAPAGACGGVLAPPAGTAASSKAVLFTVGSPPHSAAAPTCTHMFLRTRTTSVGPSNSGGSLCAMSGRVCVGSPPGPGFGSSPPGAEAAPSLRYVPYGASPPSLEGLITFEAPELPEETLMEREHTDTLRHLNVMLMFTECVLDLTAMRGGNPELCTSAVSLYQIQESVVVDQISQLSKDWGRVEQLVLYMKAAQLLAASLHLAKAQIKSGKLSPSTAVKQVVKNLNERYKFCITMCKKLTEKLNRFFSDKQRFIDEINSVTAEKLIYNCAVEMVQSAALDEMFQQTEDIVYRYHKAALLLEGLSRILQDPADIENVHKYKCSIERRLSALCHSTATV
# MEKK1, sequence (Q13233 whole entry): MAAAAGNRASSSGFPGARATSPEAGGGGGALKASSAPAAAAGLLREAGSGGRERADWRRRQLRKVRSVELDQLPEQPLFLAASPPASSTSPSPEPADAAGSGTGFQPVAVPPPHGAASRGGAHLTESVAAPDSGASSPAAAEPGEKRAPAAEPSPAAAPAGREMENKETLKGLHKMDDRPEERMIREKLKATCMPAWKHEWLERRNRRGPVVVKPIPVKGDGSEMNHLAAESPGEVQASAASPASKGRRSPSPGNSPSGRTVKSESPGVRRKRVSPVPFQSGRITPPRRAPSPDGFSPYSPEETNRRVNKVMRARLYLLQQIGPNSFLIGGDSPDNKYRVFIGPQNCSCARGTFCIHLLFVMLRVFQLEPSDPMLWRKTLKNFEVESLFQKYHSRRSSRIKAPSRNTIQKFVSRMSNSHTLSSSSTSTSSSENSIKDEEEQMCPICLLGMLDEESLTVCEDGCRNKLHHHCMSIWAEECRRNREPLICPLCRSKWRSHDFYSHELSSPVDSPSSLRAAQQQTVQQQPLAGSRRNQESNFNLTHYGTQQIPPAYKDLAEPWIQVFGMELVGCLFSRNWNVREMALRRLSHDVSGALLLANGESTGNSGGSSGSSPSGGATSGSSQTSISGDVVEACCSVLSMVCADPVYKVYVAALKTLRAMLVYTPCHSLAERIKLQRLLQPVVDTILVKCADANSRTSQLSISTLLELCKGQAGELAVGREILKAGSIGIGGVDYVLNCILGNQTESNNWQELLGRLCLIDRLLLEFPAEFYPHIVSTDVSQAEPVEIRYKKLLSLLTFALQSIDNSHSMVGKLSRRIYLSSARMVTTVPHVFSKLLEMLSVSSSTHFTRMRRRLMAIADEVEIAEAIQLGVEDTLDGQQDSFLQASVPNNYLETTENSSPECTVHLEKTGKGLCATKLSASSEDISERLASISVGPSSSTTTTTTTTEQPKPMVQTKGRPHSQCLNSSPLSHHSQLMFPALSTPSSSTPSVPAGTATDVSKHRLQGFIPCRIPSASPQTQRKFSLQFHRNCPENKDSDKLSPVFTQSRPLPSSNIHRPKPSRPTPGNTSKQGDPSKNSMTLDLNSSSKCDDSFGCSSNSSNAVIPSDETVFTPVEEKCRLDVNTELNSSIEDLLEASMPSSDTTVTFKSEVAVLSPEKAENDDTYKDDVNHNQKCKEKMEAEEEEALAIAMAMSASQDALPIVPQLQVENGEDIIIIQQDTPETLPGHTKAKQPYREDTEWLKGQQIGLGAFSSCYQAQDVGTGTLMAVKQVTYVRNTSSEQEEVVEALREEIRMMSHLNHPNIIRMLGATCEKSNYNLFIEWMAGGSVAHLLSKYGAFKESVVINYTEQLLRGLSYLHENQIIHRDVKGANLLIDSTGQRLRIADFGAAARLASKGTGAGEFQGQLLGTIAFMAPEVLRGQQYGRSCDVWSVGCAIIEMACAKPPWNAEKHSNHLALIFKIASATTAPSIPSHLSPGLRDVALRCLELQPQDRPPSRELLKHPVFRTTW
# PAK2, sequence (Q13177 whole entry): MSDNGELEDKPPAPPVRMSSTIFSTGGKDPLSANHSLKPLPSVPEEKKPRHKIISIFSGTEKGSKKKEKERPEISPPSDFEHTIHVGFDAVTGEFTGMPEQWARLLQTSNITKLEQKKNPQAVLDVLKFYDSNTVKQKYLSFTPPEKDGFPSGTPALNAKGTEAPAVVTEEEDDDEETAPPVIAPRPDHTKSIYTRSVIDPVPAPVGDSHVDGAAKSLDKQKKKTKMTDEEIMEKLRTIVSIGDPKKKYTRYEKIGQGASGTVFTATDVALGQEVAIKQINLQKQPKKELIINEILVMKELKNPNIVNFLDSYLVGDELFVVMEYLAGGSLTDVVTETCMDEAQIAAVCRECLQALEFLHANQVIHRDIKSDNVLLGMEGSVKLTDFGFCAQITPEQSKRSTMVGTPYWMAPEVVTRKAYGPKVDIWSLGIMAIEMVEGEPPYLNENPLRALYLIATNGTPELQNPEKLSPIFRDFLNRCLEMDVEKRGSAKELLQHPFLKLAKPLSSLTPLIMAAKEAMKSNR
# MKK2, sequence (P36507 whole entry): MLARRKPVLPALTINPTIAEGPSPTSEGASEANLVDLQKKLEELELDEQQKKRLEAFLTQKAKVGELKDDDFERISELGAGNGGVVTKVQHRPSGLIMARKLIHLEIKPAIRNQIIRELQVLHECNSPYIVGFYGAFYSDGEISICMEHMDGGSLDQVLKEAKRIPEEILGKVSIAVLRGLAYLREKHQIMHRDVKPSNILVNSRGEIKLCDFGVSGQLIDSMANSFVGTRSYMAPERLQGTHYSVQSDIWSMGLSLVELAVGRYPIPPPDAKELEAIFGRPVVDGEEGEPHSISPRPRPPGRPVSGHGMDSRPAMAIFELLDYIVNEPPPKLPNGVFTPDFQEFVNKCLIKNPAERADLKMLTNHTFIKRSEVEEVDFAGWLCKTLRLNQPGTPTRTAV
# PINK, sequence (D6WMX4 6-570): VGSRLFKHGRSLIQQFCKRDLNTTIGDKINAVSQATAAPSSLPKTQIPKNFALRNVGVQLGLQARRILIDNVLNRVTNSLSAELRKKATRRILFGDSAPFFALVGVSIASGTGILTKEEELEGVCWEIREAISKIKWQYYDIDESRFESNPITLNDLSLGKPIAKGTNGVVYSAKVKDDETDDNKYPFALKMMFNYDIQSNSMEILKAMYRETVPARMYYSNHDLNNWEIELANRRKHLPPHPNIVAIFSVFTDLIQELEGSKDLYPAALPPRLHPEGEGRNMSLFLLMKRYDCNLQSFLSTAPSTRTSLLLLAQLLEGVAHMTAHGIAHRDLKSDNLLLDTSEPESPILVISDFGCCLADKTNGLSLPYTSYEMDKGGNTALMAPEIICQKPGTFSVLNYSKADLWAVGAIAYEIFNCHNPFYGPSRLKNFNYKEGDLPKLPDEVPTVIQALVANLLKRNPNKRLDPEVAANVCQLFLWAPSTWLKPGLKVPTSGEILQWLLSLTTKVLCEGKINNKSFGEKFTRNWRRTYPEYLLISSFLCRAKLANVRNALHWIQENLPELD
# CAMKKb, sequence (Q96RR4 whole entry): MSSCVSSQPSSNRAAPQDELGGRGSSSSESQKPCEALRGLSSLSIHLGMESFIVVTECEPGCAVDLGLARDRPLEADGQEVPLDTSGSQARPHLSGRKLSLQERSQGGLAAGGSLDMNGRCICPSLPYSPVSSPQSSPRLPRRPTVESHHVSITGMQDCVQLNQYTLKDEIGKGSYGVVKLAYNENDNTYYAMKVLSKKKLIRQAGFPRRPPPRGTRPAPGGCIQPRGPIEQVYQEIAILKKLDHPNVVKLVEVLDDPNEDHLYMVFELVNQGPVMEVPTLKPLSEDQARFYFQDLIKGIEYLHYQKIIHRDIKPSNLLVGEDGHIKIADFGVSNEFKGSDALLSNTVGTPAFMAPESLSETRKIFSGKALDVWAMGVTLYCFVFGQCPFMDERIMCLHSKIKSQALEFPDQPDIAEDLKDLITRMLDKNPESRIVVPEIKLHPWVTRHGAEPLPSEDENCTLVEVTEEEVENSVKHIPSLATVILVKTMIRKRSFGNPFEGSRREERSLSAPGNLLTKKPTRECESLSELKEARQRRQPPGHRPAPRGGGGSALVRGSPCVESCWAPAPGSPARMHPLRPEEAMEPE
smiles,measurement,setting,value
COc1ccc(Nc2ncnc3c2ccn3-c2ccc(C)c(C)c2)cc1Cl [compound 36],remaining activity at 1 µM,ABL,89%
same,remaining activity at 1 µM,CAMKKb,96%
same,remaining activity at 1 µM,CDK2-Cyclin A,100%
same,remaining activity at 1 µM,CDK9-Cyclin T1,94%
same,remaining activity at 1 µM,CHK2,96%
same,remaining activity at 1 µM,CK1δ,92%
same,remaining activity at 1 µM,CSK,104%
same,remaining activity at 1 µM,EPH-A2,83%
same,remaining activity at 1 µM,EPH-B2,97%
same,remaining activity at 1 µM,ERK1,62%
same,remaining activity at 1 µM,ERK2,110%
same,remaining activity at 1 µM,IKKe,89%
same,remaining activity at 1 µM,IRAK4,113%
same,remaining activity at 1 µM,JNK1,85%
same,remaining activity at 1 µM,LKB1,101%
same,remaining activity at 1 µM,MEKK1,115%
same,remaining activity at 1 µM,MELK,92%
same,remaining activity at 1 µM,MKK1,112%
same,remaining activity at 1 µM,MKK2,82%
same,remaining activity at 1 µM,MKK6,115%
same,remaining activity at 1 µM,MLK3,83%
same,remaining activity at 1 µM,MNK2,90%
same,remaining activity at 1 µM,NUAK1,138%
same,remaining activity at 1 µM,OSR1,87%
same,remaining activity at 1 µM,PAK2,99%
same,remaining activity at 1 µM,PINK,73%
same,remaining activity at 1 µM,PKBb,103%
same,remaining activity at 1 µM,PRAK,90%
same,remaining activity at 1 µM,RIPK2,92%
same,remaining activity at 1 µM,ROCK 2,96%
same,remaining activity at 1 µM,ULK2,92%
